Laboratory results: ChEMBL document CHEMBL4145597, “BMS-986163, a Negative Allosteric Modulator of GluN2B with Potential Utility in Major Depressive Disorder” (ACS Med Chem Lett, 2018)
≈ marks a conversion by molar mass, not a printed value. Calls of active or inactive are those of the source. The calls are words filed in the database; no cut-off is given here.

What was measured:
Cytochrome P450 2B6 [1] = target: T1, Cytochrome P450 2B6 (Homo sapiens, UniProt P20813); experiment: Time dependent inhibition of CYP2B6 in human liver microsomes; type: ADME
T1 sequence (P20813 whole entry, the tested form may be a part): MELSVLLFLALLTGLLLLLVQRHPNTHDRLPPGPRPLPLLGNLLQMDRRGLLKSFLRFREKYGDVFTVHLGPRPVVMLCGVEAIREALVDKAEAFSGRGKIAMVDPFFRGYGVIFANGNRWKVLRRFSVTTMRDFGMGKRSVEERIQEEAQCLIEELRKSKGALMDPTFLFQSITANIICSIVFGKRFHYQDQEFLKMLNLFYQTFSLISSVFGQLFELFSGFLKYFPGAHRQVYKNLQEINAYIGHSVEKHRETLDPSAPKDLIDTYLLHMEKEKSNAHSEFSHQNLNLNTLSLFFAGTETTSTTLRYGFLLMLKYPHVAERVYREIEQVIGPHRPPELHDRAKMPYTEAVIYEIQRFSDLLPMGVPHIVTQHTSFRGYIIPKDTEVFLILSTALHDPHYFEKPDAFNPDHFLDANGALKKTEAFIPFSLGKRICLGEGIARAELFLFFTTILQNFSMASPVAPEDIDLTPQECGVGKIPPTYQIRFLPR

[2] = Half life in cynomolgus monkey at 1 mg/kg, iv administered as 5 mins infusion; type: ADME, organism-based, Macaca fascicularis; details: in vivo
Cytochrome P450 2C8 [3] = target: T2, Cytochrome P450 2C8 (Homo sapiens, UniProt P10632); experiment: Time dependent inhibition of CYP2C8 in human liver microsomes; type: ADME
T2 sequence (P10632 whole entry): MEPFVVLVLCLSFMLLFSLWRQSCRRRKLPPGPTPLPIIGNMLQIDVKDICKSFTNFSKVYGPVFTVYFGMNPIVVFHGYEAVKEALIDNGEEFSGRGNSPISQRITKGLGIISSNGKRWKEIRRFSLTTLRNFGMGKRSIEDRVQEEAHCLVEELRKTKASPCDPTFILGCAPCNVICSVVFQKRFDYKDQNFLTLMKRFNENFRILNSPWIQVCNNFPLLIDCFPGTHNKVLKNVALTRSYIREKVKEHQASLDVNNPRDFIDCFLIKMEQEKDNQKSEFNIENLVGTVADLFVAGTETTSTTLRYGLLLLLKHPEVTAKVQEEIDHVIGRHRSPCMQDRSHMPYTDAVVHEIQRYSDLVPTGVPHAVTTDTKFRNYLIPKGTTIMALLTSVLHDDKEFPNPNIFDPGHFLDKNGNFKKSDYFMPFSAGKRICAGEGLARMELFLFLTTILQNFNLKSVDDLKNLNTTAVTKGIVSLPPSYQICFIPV

Rhesus monkey = experiment: AUC (0 to 24 hrs) in monkey at 36 mg/kg, iv assessed as BMS-986169 level in plasma; type: ADME, organism-based, Macaca mulatta; parameters: dose 36 mg/kg, time < 24 hr, route intravenous; details: in vivo
[4] = Half life in cynomolgus monkey liver microsomes; type: ADME, Macaca fascicularis, microsome
[5] = Half life in mouse liver microsomes; type: ADME, microsome
Mus musculus [6] = experiment: Ex vivo receptor occupancy at GluN2B receptor in CD-1 mouse forebrain membranes assessed as reduction in [3H]Ro 25-6981 receptor labeling at 3 mg/kg, iv incubated for 5 mins by topcount micro scintillation counting method; type: functional
[7] = Fraction unbound in rat plasma; type: ADME, cell-free
[8] = Prodrug activation in human assessed as BMS-986169 level in blood at 37 degC; type: tissue-based
[9] = AUClast in Sprague-Dawley rat at 1 mg/kg, iv administered as 5 mins infusion; type: ADME, organism-based; parameters: dose 1 mg/kg, route intravenous, time 0 - last; details: in vivo
Salmonella typhimurium = experiment: Mutagenicity in Salmonella typhimurium by Ames test; type: toxicity, organism-based; details: salmonella enterica subsp. enterica serovar typhimurium
Cytochrome P450 2C19 [10] = target: T3, Cytochrome P450 2C19 (Homo sapiens, UniProt P33261); experiment: Inhibition of CYP2C19 in human liver microsomes; type: ADME
T3 sequence (P33261 whole entry): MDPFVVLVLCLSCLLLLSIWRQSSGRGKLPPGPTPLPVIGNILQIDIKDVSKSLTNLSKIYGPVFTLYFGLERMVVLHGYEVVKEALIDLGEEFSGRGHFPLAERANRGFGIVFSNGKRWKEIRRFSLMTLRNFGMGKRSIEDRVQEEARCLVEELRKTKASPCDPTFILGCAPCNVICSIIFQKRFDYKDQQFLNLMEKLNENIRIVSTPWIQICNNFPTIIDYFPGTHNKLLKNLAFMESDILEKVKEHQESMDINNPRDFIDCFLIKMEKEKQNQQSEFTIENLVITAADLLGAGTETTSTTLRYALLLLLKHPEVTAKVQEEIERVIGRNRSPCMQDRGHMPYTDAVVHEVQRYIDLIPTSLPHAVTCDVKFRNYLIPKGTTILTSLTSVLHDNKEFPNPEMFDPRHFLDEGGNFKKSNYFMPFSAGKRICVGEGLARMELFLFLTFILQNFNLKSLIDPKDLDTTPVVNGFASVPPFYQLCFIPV

[11] = Binding affinity to GluN2B receptor in cynomolgus monkey cortex; parameters: species or system Macaca fascicularis
[12] = Ratio of drug uptake in CD-1 mouse brain to plasma at 0.1 to 1 mg/kg, iv; type: ADME, organism-based; details: read-out: BPR
Cytochrome P450 2D6 [13] = target: T4, Cytochrome P450 2D6 (Homo sapiens, UniProt P10635); experiment: Time dependent inhibition of CYP2D6 in human liver microsomes; type: ADME
T4 sequence (P10635 whole entry): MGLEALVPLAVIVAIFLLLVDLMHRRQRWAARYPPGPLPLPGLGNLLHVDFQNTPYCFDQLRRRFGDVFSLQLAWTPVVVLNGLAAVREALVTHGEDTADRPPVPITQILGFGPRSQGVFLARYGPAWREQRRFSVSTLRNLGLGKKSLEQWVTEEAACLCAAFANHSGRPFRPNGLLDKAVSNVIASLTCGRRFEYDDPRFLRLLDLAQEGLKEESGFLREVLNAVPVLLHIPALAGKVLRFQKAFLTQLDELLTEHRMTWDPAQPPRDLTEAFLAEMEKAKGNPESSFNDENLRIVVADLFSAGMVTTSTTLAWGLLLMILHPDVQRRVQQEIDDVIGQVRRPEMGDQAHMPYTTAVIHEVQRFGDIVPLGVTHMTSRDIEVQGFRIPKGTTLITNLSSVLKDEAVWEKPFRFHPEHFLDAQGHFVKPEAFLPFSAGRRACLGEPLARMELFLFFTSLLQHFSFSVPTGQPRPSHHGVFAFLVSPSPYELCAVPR

[14] = Fraction unbound in mouse plasma; type: ADME, cell-free
[15] = target: Glutamate receptor ionotropic, NMDA 2D (Homo sapiens) (UniProt O15399); experiment: Negative allosteric modulation of human GluN2D receptor expressed in Xenopus laevis oocytes assessed as inhibition of glutamate/glycine-induced channel current at 3 uM after 10 to 15 mins by two electrode voltage clamp based electrophysiology assay; type: cell-based
[16] = Prodrug activation in rat assessed as BMS-986169 level in blood at 37 degC; type: tissue-based
[17] = Fraction unbound in human plasma; type: ADME, cell-free
Cytochrome P450 3A4 [18] = target: T5, Cytochrome P450 3A4 (Homo sapiens, UniProt P08684); experiment: Time dependent inhibition of CYP3A4 in human liver microsomes using BFC/BZR as substrate; type: ADME
T5 sequence (P08684 whole entry): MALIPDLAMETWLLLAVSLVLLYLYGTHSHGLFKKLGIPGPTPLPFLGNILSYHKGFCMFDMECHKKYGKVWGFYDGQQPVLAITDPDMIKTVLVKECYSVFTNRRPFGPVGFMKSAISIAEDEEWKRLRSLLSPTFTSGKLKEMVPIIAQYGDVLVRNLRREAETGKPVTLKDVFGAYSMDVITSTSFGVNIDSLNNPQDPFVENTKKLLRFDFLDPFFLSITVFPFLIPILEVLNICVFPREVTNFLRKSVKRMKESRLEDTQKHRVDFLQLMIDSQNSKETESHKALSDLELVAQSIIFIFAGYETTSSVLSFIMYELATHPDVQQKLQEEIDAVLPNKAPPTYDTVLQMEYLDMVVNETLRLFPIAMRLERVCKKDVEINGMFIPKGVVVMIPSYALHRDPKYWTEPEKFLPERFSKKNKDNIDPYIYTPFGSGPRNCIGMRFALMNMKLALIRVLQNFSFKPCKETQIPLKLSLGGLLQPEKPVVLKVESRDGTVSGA

Cytochrome P450 1A2 [19] = target: T6, Cytochrome P450 1A2 (Homo sapiens, UniProt P05177); experiment: Inhibition of CYP1A2 in human liver microsomes; type: ADME
T6 sequence (P05177 whole entry): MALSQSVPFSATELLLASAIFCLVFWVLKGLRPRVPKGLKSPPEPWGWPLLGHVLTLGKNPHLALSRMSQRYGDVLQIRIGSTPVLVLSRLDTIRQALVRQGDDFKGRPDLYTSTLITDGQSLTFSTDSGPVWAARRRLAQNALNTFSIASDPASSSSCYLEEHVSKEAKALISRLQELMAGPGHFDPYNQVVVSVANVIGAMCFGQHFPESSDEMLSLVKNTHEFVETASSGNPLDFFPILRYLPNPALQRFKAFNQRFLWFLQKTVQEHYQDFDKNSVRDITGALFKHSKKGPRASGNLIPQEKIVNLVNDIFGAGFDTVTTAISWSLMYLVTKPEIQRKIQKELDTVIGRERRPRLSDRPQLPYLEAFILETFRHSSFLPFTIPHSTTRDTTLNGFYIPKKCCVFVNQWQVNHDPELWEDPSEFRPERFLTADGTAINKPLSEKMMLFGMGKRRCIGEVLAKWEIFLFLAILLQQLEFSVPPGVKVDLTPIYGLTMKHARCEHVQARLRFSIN

[20] = Unbound plasma concentration in guinea pig at 2 to 10 mg/kg, iv; type: ADME, organism-based, Cavia porcellus; details: in vivo
[21] = target: Glutamate receptor ionotropic, NMDA 2B (Homo sapiens, UniProt Q05586+Q13224); experiment: Negative allosteric modulation of human GluN2B receptor expressed in Xenopus laevis oocytes assessed as inhibition of glutamate/glycine-induced channel current after 15 to 20 mins by two electrode voltage clamp based electrophysiology assay; type: cell-based
[22] = target: Adrenergic receptor alpha-1 (Homo sapiens) (UniProt P35348+P25100+P35368); experiment: Inhibition of human adrenergic alpha 1 receptor; type: protein assay
[23] = Half life in Sprague-Dawley rat at 1 mg/kg, iv administered as 5 mins infusion; type: ADME, organism-based; details: in vivo
[24] = AUClast in Beagle dog at 1 mg/kg, iv administered as 5 mins infusion; type: ADME, organism-based, Canis lupus familiaris; parameters: dose 1 mg/kg, time 0 - last, route intravenous; details: in vivo
[25] = Clearance in cynomolgus monkey at 1 mg/kg, iv administered as 5 mins infusion; type: ADME, organism-based, Macaca fascicularis; details: in vivo
[26] = Prodrug activation in dog assessed as BMS-986169 level in blood at 37 degC; type: tissue-based, Canis lupus familiaris
Mus musculus [27] = experiment: Ex vivo receptor occupancy at GluN2B receptor in CD-1 mouse forebrain membranes assessed as reduction in [3H]Ro 25-6981 receptor labeling at 1 mg/kg, iv incubated for 5 mins by topcount micro scintillation counting method; type: functional
[28] = Half life in rat liver microsomes; type: ADME, microsome
[29] = AUClast in CD-1 mouse at 1 mg/kg, iv administered as 5 mins infusion; type: ADME, organism-based; parameters: dose 1 mg/kg, time 0 - last, route intravenous; details: in vivo
[30] = Half life in Beagle dog at 1 mg/kg, iv administered as 5 mins infusion; type: ADME, organism-based, Canis lupus familiaris; details: in vivo
Cytochrome P450 3A4 [31] = target: T5, Cytochrome P450 3A4; experiment: Inhibition of CYP3A4 in human liver microsomes using BFC/BZR as substrate; type: ADME
[32] = target: Glutamate receptor ionotropic, NMDA 2A (Homo sapiens) (UniProt Q12879); experiment: Negative allosteric modulation of human GluN2A receptor expressed in Xenopus laevis oocytes assessed as inhibition of glutamate/glycine-induced channel current at 3 uM after 10 to 15 mins by two electrode voltage clamp based electrophysiology assay; type: cell-based
[33] = Volume of distribution at steady state in Beagle dog at 1 mg/kg, iv administered as 5 mins infusion; type: ADME, organism-based, Canis lupus familiaris; details: in vivo, read-out: Vdss
Cytochrome P450 2C8 [34] = target: T2, Cytochrome P450 2C8; experiment: Inhibition of CYP2C8 in human liver microsomes; type: ADME
[35] = Clearance in Sprague-Dawley rat at 1 mg/kg, iv administered as 5 mins infusion; type: ADME, organism-based; details: in vivo
Cytochrome P450 2D6 [36] = target: T4, Cytochrome P450 2D6; experiment: Inhibition of CYP2D6 in human liver microsomes; type: ADME
[37] = Fraction unbound in cynomolgus monkey plasma; type: ADME, cell-free, Macaca fascicularis
[38] = Clearance in CD-1 mouse at 1 mg/kg, iv administered as 5 mins infusion; type: ADME, organism-based; details: in vivo
[39] = Half life in dog liver microsomes; type: ADME, Canis lupus familiaris, microsome
[40] = Prodrug activation in monkey assessed as BMS-986169 level in blood at 37 degC; type: tissue-based, Macaca mulatta; details: rhesus monkey
[41] = AUClast in cynomolgus monkey at 1 mg/kg, iv administered as 5 mins infusion; type: ADME, organism-based, Macaca fascicularis; parameters: dose 1 mg/kg, route intravenous, time 0 - last; details: in vivo
[42] = Fraction unbound in dog plasma; type: ADME, cell-free, Canis lupus familiaris
[43] = target: Glutamate receptor ionotropic, NMDA 2C (Homo sapiens) (UniProt Q14957); experiment: Negative allosteric modulation of human GluN2C receptor expressed in Xenopus laevis oocytes assessed as inhibition of glutamate/glycine-induced channel current at 3 uM after 10 to 15 mins by two electrode voltage clamp based electrophysiology assay; type: cell-based
Chain of Glutamate receptor ionotropic, NMDA 2C (Homo sapiens) (Q14957 whole entry, the tested form may be a part): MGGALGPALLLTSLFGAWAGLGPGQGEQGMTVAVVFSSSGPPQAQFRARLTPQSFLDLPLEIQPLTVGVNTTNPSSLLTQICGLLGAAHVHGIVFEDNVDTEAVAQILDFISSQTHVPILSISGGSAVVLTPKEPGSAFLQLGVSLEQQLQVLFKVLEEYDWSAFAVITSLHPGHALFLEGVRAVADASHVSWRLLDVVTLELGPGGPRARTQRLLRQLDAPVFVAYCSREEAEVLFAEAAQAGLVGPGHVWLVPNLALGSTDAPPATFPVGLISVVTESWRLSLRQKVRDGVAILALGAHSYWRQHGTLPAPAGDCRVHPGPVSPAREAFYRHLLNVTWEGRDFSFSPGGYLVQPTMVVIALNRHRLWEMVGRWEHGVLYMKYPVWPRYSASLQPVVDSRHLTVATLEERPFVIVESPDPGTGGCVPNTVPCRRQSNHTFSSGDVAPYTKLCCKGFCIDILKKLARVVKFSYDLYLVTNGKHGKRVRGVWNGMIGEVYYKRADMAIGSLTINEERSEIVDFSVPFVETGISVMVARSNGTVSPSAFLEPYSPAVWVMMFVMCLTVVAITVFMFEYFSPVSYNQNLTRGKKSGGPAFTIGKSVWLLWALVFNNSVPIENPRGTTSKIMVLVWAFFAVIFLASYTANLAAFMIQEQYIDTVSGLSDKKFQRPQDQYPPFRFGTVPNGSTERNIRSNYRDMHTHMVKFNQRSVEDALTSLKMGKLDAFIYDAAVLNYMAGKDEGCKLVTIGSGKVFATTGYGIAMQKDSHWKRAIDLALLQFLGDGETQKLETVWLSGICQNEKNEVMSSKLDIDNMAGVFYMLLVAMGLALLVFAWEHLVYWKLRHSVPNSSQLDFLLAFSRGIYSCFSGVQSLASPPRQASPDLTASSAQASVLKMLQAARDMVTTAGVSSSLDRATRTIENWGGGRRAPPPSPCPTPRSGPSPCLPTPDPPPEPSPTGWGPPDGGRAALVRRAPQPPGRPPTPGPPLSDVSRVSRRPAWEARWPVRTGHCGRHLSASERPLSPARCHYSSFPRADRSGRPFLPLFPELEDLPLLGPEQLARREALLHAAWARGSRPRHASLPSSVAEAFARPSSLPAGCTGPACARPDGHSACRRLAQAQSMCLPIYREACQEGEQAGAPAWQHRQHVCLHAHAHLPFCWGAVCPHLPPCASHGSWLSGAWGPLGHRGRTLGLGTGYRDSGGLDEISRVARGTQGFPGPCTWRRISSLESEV

[44] = Volume of distribution at steady state in Sprague-Dawley rat at 1 mg/kg, iv administered as 5 mins infusion; type: ADME, organism-based; details: in vivo, read-out: Vdss
[45] = Oral bioavailability in rat at 5 mg/kg; type: ADME, organism-based; details: in vivo
[46] = Aqueous solubility of the compound at pH 7.4; type: physicochemical; details: aqueous medium
[47] = Dissociation constant, pKa of the compound by spectrophotometric method; type: physicochemical
Cavia porcellus = experiment: Cardiotoxicity in guinea pig assessed as increase in QTcB at 2 to 10 mg/kg, iv; type: toxicity, organism-based; details: in vivo
[48] = Prodrug activation in cynomolgus monkey assessed as BMS-986169 level in plasma at 1.2 mg/kg, iv measured 10 mins post dose; type: organism-based, Macaca fascicularis; details: in vivo
[49] = Octanol/water buffer partition co-efficient, log D of the compound at pH 7.4 by shake-flask method; type: physicochemical
[50] = target: Glutamate receptor ionotropic, NMDA 2B (Homo sapiens, UniProt Q13224); experiment: Binding affinity to GluN2B receptor in human cortex
[51] = Volume of distribution at steady state in cynomolgus monkey at 1 mg/kg, iv administered as 5 mins infusion; type: ADME, organism-based, Macaca fascicularis; details: in vivo, read-out: Vdss
Cytochrome P450 2C9 [52] = target: T7, Cytochrome P450 2C9 (Homo sapiens, UniProt P11712); experiment: Time dependent inhibition of CYP2C9 in human liver microsomes; type: ADME
T7 sequence (P11712 whole entry): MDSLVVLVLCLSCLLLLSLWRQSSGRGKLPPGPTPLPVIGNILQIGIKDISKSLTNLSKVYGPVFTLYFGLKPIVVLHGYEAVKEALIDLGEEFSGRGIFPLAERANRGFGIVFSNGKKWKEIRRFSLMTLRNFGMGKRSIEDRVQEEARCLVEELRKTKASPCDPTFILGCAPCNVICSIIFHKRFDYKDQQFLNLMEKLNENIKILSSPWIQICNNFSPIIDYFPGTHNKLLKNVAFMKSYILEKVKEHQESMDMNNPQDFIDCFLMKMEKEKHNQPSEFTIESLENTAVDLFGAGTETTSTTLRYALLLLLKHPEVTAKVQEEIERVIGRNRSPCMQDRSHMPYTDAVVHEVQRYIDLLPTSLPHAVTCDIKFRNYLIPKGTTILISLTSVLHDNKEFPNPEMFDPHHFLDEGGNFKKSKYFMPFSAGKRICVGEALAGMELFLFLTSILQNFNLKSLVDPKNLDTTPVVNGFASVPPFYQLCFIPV

Cytochrome P450 2C19 [53] = target: T3, Cytochrome P450 2C19; experiment: Time dependent inhibition of CYP2C19 in human liver microsomes; type: ADME
[54] = Plasma concentration in CD-1 mouse at 0.1 to 1 mg/kg, iv; type: ADME, organism-based; details: in vivo
Cytochrome P450 1A2 [55] = target: T6, Cytochrome P450 1A2; experiment: Time dependent inhibition of CYP1A2 in human liver microsomes; type: ADME
Cytochrome P450 2B6 [56] = target: T1, Cytochrome P450 2B6; experiment: Inhibition of CYP2B6 in human liver microsomes; type: ADME
[57] = Half life in human liver microsomes; type: ADME, microsome
Cytochrome P450 2C9 [58] = target: T7, Cytochrome P450 2C9; experiment: Inhibition of CYP2C9 in human liver microsomes; type: ADME
[59] = Clearance in Beagle dog at 1 mg/kg, iv administered as 5 mins infusion; type: ADME, organism-based, Canis lupus familiaris; details: in vivo
[60] = Volume of distribution at steady state in CD-1 mouse at 1 mg/kg, iv administered as 5 mins infusion; type: ADME, organism-based; details: in vivo, read-out: Vdss
[61] = Half life in CD-1 mouse at 1 mg/kg, iv administered as 5 mins infusion; type: ADME, organism-based; details: in vivo

In the case of `Cc1ccc(CN2CC[C@@H](N3CC[C@@H](c4ccc(O)cc4)[C@H](F)C3)C2=O)cc1`, the TDI (Cytochrome P450 2B6 [1]) is reported as “Not Active”, the half-life [2] is reported as 90 min and the TDI (Cytochrome P450 2C8 [3]) is reported as “Not Active”. The AUC (Rhesus monkey) was 88 µM·h, the half-life [4] was 12 min and the half-life [5] was 3.5 min. The Occ (Mus musculus [6]) was 95%, the fraction unbound [7] was 0.09 and the Drug metabolism [8] was “Metabolite_Detected”. For the same molecule, the AUC(0-t) at 5 min [9] was 1.3 µM·h, the Activity (Salmonella typhimurium) was “Non-Toxic” and the IC50 (Cytochrome P450 2C19 [10]) was over 18 µM. For the same molecule, the Ki [11] was 0.0042 µM, the Kp [12] was 2.8 and the TDI (Cytochrome P450 2D6 [13]) was “Not Active”. For the same molecule, the fraction unbound [14] was 0.12, the inhibition [15] was 7% and the Drug metabolism [16] was “Metabolite_Detected”. For the same molecule, the fraction unbound [17] was 0.06, the TDI (Cytochrome P450 3A4 [18]) was “Not Active” and the IC50 (Cytochrome P450 1A2 [19]) was over 18 µM. The “Cp(f)” value [20] was “<= 19 uM”, the IC50 [21] was 0.024 µM and the inhibition [22] was “inactive”. It also gave a half-life [23] of 54 min, an AUC(0-t) at 5 min [24] of 2.5 µM·h and a clearance [25] of 15 mL/min/kg. The Drug metabolism [26] was “Metabolite_Detected”, the Occ (Mus musculus [27]) was 73% and the half-life [28] was 2.7 min. It also gave an AUC(0-t) at 5 min [29] of 0.53 µM·h, a half-life [30] of 126 min and an IC50 (Cytochrome P450 3A4 [31]) of over 18 µM. The inhibition [32] was -2.4%, the Vd [33] was 2.1 L/kg and the IC50 (Cytochrome P450 2C8 [34]) was over 18 µM. It also gave a clearance [35] of 54 mL/min/kg, an IC50 (Cytochrome P450 2D6 [36]) of over 18 µM and a fraction unbound [37] of 0.11. For the same molecule, the clearance [38] was 75 mL/min/kg, the half-life [39] was 6 min and the Drug metabolism [40] was “Metabolite_Detected”. For the same molecule, the AUC(0-t) at 5 min [41] was 2.7 µM·h, the fraction unbound [42] was 0.07 and the inhibition [43] was 8.6%. The Vd [44] was 2.3 L/kg, the bioavailability [45] was 2.5% and the solubility [46] was 2 µg/mL (≈ 5.23 µM). The pKa [47] was 4.4, the Activity (Cavia porcellus) was “Non-Toxic” and the Drug metabolism [48] was “Metabolite_Detected”. The logD [49] was 2.9, the Ki [50] was 0.0063 µM and the Vd [51] was 1.7 L/kg. For the same molecule, the TDI (Cytochrome P450 2C9 [52]) was “Not Active”, the TDI (Cytochrome P450 2C19 [53]) was “Not Active” and the concentration [54] was 270 to 1100 nM. For the same molecule, the TDI (Cytochrome P450 1A2 [55]) was “Not Active”, the IC50 (Cytochrome P450 2B6 [56]) was over 18 µM and the half-life [57] was 25 min. For the same molecule, the IC50 (Cytochrome P450 2C9 [58]) was over 18 µM, the clearance [59] was 17 mL/min/kg and the Vd [60] was 8.2 L/kg. It also gave a half-life [61] of 216 min.
